Laboratory results reported in article PMC11879792 (Frontiers in Pharmacology, 2025).

Key:
[1] = set-up: method as in Diasio and Harris, 1989; settings: parenteral administration of 5-FU; approximately; ref Diasio and Harris, 1989; cited from earlier work
[2] = Single-dose, two-cycle crossover PK/bioequivalence trial of S-1 capsules, fasting; type: in vivo, Chinese cancer patients; settings: human, plasma, oral, 100 mg; fasting conditions
Source text: This study, a multicenter, randomized, open-label, single-dose, two-cycle crossover investigation, was distinctly divided into fasting and fed trials. Each subject received either the test or reference formulation in a separate cycle. Each cycle consisted of a 4-day inpatient phase, followed by a 7-day washout period between cycles to ensure that any residual effects from the previous formulation had fully dissipated before the initiation of the next cycle. To avoid the residual effects of fasting or feeding that could influence the results, the fasting and fed trials each enrolled 60 subjects. Subjects were randomly allocated to one of the two treatment sequences, namely, test-reference or reference-test, in a 1:1 ratio. All eligible subjects were admitted to the clinical ward 1 day prior to drug administration, adhering to a minimum fasting period of 10 h before drug intake. In the fasting trial, subjects were required to fast. Subsequently, they ingested a single dose comprising two capsules (50 mg each) of either the test or reference formulation, accompanied by 240 mL of warm water. […]
OXO was determined in blood, which was performed under the following conditions: the aqueous solution containing 5 mM ammonium acetate (mobile phase A) and acetonitrile (mobile phase B). […]

SMILES	half-life [1] [min]	Tmax [2] [h]
O=c1[nH]cc(F)c(=O)[nH]1 [5-FU, 5-fluorouracil]	8 to 20	
Oc1cc(O)c(Cl)cn1 [CDHP, gimeracil]		~1
